Reference: ChEMBL document CHEMBL3046073, “Synthesis and cytotoxicity of novel 6H-indolo[2,3-b]quinoxaline derivatives” (2013)

Experiments:
Format in all cases: functional
[1] = tested on: A549; test: Cytotoxicity against Homo sapiens (human) A549 cells assessed as cell viability at 10 uM after 72 hr by MTT assay; settings: A549, 72 h, read-out: Activity
[2] = tested on: DU-145; test: Cytotoxicity against Homo sapiens (human) DU145 cells assessed as cell viability at 10 uM after 72 hr by MTT assay; settings: DU-145, 72 h, read-out: Activity
[3] = tested on: HeLa; test: Cytotoxicity against Homo sapiens (human) HeLa cells assessed as cell viability at 10 uM after 72 hr by MTT assay; settings: read-out: Activity

| SMILES | viability at 10 µM [1] [%] | viability at 10 µM [2] [%] | viability at 10 µM [3] [%] |
| --- | --- | --- | --- |
| Fc1ccc2c(c1)c1nc3ccccc3nc1n2Cc1cn(-c2ccccc2)nn1 | 97.8 | 72.6 | 92 |
| Fc1ccc(-n2cc(Cn3c4ccccc4c4nc5ccccc5nc43)nn2)c(F)c1 | 94.7 | 77.4 | 80.7 |
| Fc1ccc2c(c1)c1nc3ccccc3nc1n2Cc1cn(-c2cccc(C(F)(F)F)c2)nn1 | 93.7 | 77.5 | 86.4 |
| FC(F)(F)c1cccc(-n2cc(Cn3c4ccccc4c4nc5ccccc5nc43)nn2)c1 | 83.4 | 76.5 | 76.9 |
| Fc1ccc(-n2cc(Cn3c4ccc(F)cc4c4nc5ccccc5nc43)nn2)cc1 | 97.1 | 85 | 91.9 |
| Fc1ccc2c(c1)c1nc3ccccc3nc1n2Cc1cn(-c2cccc(Cl)c2)nn1 | 91.9 | 73.2 | 77.7 |
| Fc1ccc(COc2cccc(-n3cc(Cn4c5ccccc5c5nc6ccccc6nc54)nn3)c2)cc1 | 98.3 | 77.6 | 81.5 |
| Fc1cc(-n2cc(Cn3c4ccccc4c4nc5ccccc5nc43)nn2)ccc1Cl | 83.5 | 76.1 | 93.6 |
| Fc1ccc2c(c1)c1nc3ccccc3nc1n2Cc1cn(-c2ccccc2Br)nn1 | 94.7 | 90.1 | 89.4 |
| Fc1ccc(-n2cc(Cn3c4ccc(F)cc4c4nc5ccccc5nc43)nn2)c(F)c1 | 87.9 | 77.3 | 86.8 |
| Fc1ccc(-n2cc(Cn3c4ccccc4c4nc5ccccc5nc43)nn2)cc1 | 94.7 | 83.2 | 77.4 |
| Brc1ccccc1-n1cc(Cn2c3ccccc3c3nc4ccccc4nc32)nn1 | 85.5 | 85.4 | 75.6 |
| COc1cccc2c1C(=O)c1c(O)c3c(c(O)c1C2=O)C[C@@](O)(C(=O)CO)C[C@@H]3O[C@H]1C[C@H](N)[C@H](O)[C@H](C)O1 [DOXORUBICIN] | 6.33 | 9 | 12 |
| Clc1cccc(-n2cc(Cn3c4ccccc4c4nc5ccccc5nc43)nn2)c1 | 104 | 77.5 | 77.5 |
